#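 GI50 is the concentration that inhibits growth by half. The concentration for full growth arrest is given as TGI.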
# What was measured:
# Test in all cases: growth of human tumour cells (NCI), 384-well format
# SK-MEL-28 melanoma = tested on: SK-MEL-28 melanoma
# HT29 colon = tested on: HT29 colon
# NCI-H522 lung = tested on: NCI-H522 lung
# HCC-2998 colon = tested on: HCC-2998 colon
# SW-620 colon = tested on: SW-620 colon
# SF-539 CNS = tested on: SF-539 CNS
# CCRF-CEM leukemia = tested on: CCRF-CEM leukemia
# BT-549 breast = tested on: BT-549 breast
# MCF7 breast = tested on: MCF7 breast
# UO-31 renal = tested on: UO-31 renal
# OVCAR-3 ovarian = tested on: OVCAR-3 ovarian
# HS 578T breast = tested on: HS 578T breast
# MDA-MB-468 breast = tested on: MDA-MB-468 breast
# OVCAR-5 ovarian = tested on: OVCAR-5 ovarian
# NCI-H23 lung = tested on: NCI-H23 lung
# MDA-MB-231 breast = tested on: MDA-MB-231 breast
# NCI-H226 lung = tested on: NCI-H226 lung
# OVCAR-8 ovarian = tested on: OVCAR-8 ovarian
# SR leukemia = tested on: SR leukemia
# KM12 colon = tested on: KM12 colon
# A549 NSCLC = tested on: A549 NSCLC
# SNB-75 CNS = tested on: SNB-75 CNS
# NCI-H460 NSCLC = tested on: NCI-H460 NSCLC
# SF-268 CNS = tested on: SF-268 CNS
# MDA-MB-435 melanoma = tested on: MDA-MB-435 melanoma
# SNB-19 CNS = tested on: SNB-19 CNS
# SF-295 CNS = tested on: SF-295 CNS
# SK-OV-3 ovarian = tested on: SK-OV-3 ovarian
# OVCAR-4 ovarian = tested on: OVCAR-4 ovarian
# CAKI-1 renal = tested on: CAKI-1 renal
# T-47D breast = tested on: T-47D breast
# HOP-62 NSCLC = tested on: HOP-62 NSCLC
# RPMI-8226 leukemia = tested on: RPMI-8226 leukemia
# TK-10 renal = tested on: TK-10 renal
# IGROV1 ovarian = tested on: IGROV1 ovarian
# PC-3 prostate = tested on: PC-3 prostate
# NCI/ADR-RES ovarian = tested on: NCI/ADR-RES ovarian
# EKVX NSCLC = tested on: EKVX NSCLC
# ACHN renal = tested on: ACHN renal
# SN12C renal = tested on: SN12C renal
# HL-60(TB) leukemia = tested on: HL-60(TB) leukemia
# RXF 393 renal = tested on: RXF 393 renal
# MOLT-4 leukemia = tested on: MOLT-4 leukemia
# NCI-H322M lung = tested on: NCI-H322M lung
# HOP-92 NSCLC = tested on: HOP-92 NSCLC
# HCT-116 colon = tested on: HCT-116 colon
# A498 renal = tested on: A498 renal
structure (smiles),measurement,setting,value
Cc1ccc(Nc2nc(N)c(C(=O)c3ccc(C#N)cc3)s2)cc1,GI50,SK-MEL-28 melanoma,14600 nM
same,TGI,SK-MEL-28 melanoma,74900 nM
same,GI50,HT29 colon,34 nM
same,TGI,HT29 colon,28200 nM
same,GI50,NCI-H522 lung,121 nM
same,TGI,NCI-H522 lung,292 nM
same,GI50,HCC-2998 colon,105 nM
same,TGI,HCC-2998 colon,572 nM
same,GI50,SW-620 colon,37.3 nM
same,TGI,SW-620 colon,13900 nM
same,GI50,SF-539 CNS,188 nM
same,TGI,SF-539 CNS,393 nM
same,GI50,CCRF-CEM leukemia,170 nM
same,TGI,CCRF-CEM leukemia,310 nM
same,GI50,BT-549 breast,38.2 nM
same,TGI,BT-549 breast,1310 nM
same,GI50,MCF7 breast,40.2 nM
same,TGI,MCF7 breast,28200 nM
same,GI50,UO-31 renal,69 nM
same,TGI,UO-31 renal,1720 nM
same,GI50,OVCAR-3 ovarian,170 nM
same,TGI,OVCAR-3 ovarian,414 nM
same,GI50,HS 578T breast,22.1 nM
same,TGI,HS 578T breast,47.1 nM
same,GI50,MDA-MB-468 breast,185 nM
same,TGI,MDA-MB-468 breast,352 nM
same,GI50,OVCAR-5 ovarian,1460 nM
same,TGI,OVCAR-5 ovarian,55100 nM
same,GI50,NCI-H23 lung,47.9 nM
same,TGI,NCI-H23 lung,1470 nM
same,GI50,MDA-MB-231 breast,202 nM
same,TGI,MDA-MB-231 breast,35800 nM
same,GI50,NCI-H226 lung,39.3 nM
same,TGI,NCI-H226 lung,2070 nM
same,GI50,OVCAR-8 ovarian,86.7 nM
same,TGI,OVCAR-8 ovarian,40300 nM
same,GI50,SR leukemia,18.1 nM
same,TGI,SR leukemia,33.4 nM
same,GI50,KM12 colon,42 nM
same,TGI,KM12 colon,19900 nM
same,GI50,A549 NSCLC,247 nM
same,TGI,A549 NSCLC,> 100000 nM
same,GI50,SNB-75 CNS,37 nM
same,TGI,SNB-75 CNS,520 nM
same,GI50,NCI-H460 NSCLC,178 nM
same,TGI,NCI-H460 NSCLC,351 nM
same,GI50,SF-268 CNS,45.8 nM
same,TGI,SF-268 CNS,2520 nM
same,GI50,MDA-MB-435 melanoma,41.9 nM
same,TGI,MDA-MB-435 melanoma,151 nM
same,GI50,SNB-19 CNS,325 nM
same,TGI,SNB-19 CNS,> 100000 nM
same,GI50,SF-295 CNS,57.8 nM
same,TGI,SF-295 CNS,298 nM
same,GI50,SK-OV-3 ovarian,247 nM
same,TGI,SK-OV-3 ovarian,18300 nM
same,GI50,OVCAR-4 ovarian,385 nM
same,TGI,OVCAR-4 ovarian,17800 nM
same,GI50,CAKI-1 renal,56.6 nM
same,TGI,CAKI-1 renal,11200 nM
same,GI50,T-47D breast,743 nM
same,TGI,T-47D breast,26300 nM
same,GI50,HOP-62 NSCLC,38.6 nM
same,TGI,HOP-62 NSCLC,3610 nM
same,GI50,RPMI-8226 leukemia,30.9 nM
same,TGI,RPMI-8226 leukemia,112 nM
same,GI50,TK-10 renal,447 nM
same,TGI,TK-10 renal,22200 nM
same,GI50,IGROV1 ovarian,73.2 nM
same,TGI,IGROV1 ovarian,15300 nM
same,GI50,PC-3 prostate,47.6 nM
same,TGI,PC-3 prostate,> 100000 nM
same,GI50,NCI/ADR-RES ovarian,28.7 nM
same,TGI,NCI/ADR-RES ovarian,69.1 nM
same,GI50,EKVX NSCLC,58.4 nM
same,TGI,EKVX NSCLC,51500 nM
same,GI50,ACHN renal,72.5 nM
same,TGI,ACHN renal,17800 nM
same,GI50,SN12C renal,348 nM
same,TGI,SN12C renal,54600 nM
same,GI50,HL-60(TB) leukemia,19.7 nM
same,TGI,HL-60(TB) leukemia,34.7 nM
same,GI50,RXF 393 renal,23.3 nM
same,TGI,RXF 393 renal,51.2 nM
same,GI50,MOLT-4 leukemia,128 nM
same,TGI,MOLT-4 leukemia,256 nM
same,GI50,NCI-H322M lung,481 nM
same,TGI,NCI-H322M lung,46400 nM
same,GI50,HOP-92 NSCLC,332 nM
same,TGI,HOP-92 NSCLC,23300 nM
same,GI50,HCT-116 colon,243 nM
same,TGI,HCT-116 colon,976 nM
same,GI50,A498 renal,298 nM
same,TGI,A498 renal,16400 nM

# Reference: PubChem BioAssay (NCI)
